Test results as given in patent US12171821B2, “Toxoplasma gondii vaccine” (priority 2018, dated 2024).
Values joined by “and” are separate entries in the source; they are usually repeats but may differ in a detail not shown here. Equal entries are not always repeated. “Also recorded” adds a separate entry of the source.

How the values were obtained:
murine organoids = assay: Monolayer formation of murine organoids with delta 6-desaturase inhibitor; type: cell-based, mouse; conditions: about 2 μM to 200 μM, medium with about 200 μM linoleic acid
[1] = whole animal experiments (He et al., 2012); cited from earlier work
T. gondii [2] = assay: Real-time PCR (SAG1) on gDNA of mouse fecal samples; type: in vivo, Toxoplasma gondii; conditions: mice fed linoleic acid, with or without SC26196
Method: (§1) Delta-6-desaturase inhibition. SC 26196 (Cayman) was solubilized in DMSO and used at 20 μM in mouse organoid monolayers. For in vivo treatment, the inhibitor was solubilized in 0.5% m/v methylcellulose and the mice were given 50 mg/kg every 12 hours by oral gavage (He et al., 2012). 4-week old C57BL/6J female mice deleted in Z-DNA-binding protein (Pittman et al., 2016) were divided into four different groups: uninfected control, T. gondii-infected without fatty acid supplementation, T. gondii infected with linoleic acid supplementation, and T. gondii-infected with linoleic acid and SC 26196 inhibitor. Each mouse supplemented with linoleic acid received 10 μL of 99% linoleic acid oil (MilliporaSigma Cat #843483) suspended in 0.5% Methylcellulose per day by oral gavage. Mice were infected with 1000 brain cysts purified as described above by oral gavage and euthanized 7 days post infection. Sample size was at least 2 mice per group and the experiment was repeated 5 times. Alternatively, each mouse was infected with one mouse brain at least 2 months postinfection with at least 1000 cysts. Mice were treated with SC 26196 until day 5 postinfection. Feces were collected from days 5-14 and oocysts enumerated by microscopy.
Real-time PCR on fecal samples. […] A standard curve was generated using a dilution series of 101-105 parasites per well amplified using the SAG1 primer set described above, based on a gDNA sample with known parasite quantity. […]
[formula] […] The calculated copy numbers of each sample were normalized based on the ng of nucleic acid used as PCR template. […]
Statistical methods. […] The difference between the mean target gene copy numbers was analyzed by two-tailed unpaired t tests. […] The difference between the mean relative expression of each target gene was analyzed by two-tailed unpaired t tests.

[3] = test system: T. gondii ME49 bradyzoites; assay: Real-time PCR on ileum cDNA of infected Z-DNA binding protein knock out mice; type: in vivo, Toxoplasma gondii; conditions: mice, linoleic acid and SC26196 50 mg/kg every 12 hours by oral gavage, seven days after infection
Method: as §1
(§2) Real-time PCR on ileum cDNA. Z-DNA binding protein deletion mice ice with and without delta-6-desaturase inhibitor treatment were euthanized 7 days post infection. The ileum of each mouse was removed and homogenized in 1 mL of TRIzol. Total RNA was isolated according to manufacturer's protocol (Invitrogen) and treated with amplification grade Dnase I. cDNA was generated using the Invitrogen SuperScript III First-Strand Synthesis kit with random hexamer primers. GRA11B and SAG1 were used as markers of sexual and asexual stages, respectively. The T. gondii housekeeping gene TUB1A was used to normalize target gene expression. Real-time quantitative PCR was performed using Bio-Rad iTaq Universal SYBR Green Supermix on 311 an Applied Biosystems StepOnePlus Real-Time PCR system. The efficiency of each primer set was calculated from the slope of a 1:10 dilution standard curve of tachyzoite gDNA, where E=10^(−1/slope). The Pfaffl method (Pfaffl, 2001), which accounts for differences in efficiencies, was then used to calculate the relative gene expression of GRA11B and SAG1 per sample, in triplicate. Only wells with one melt curve temperature were used, indicating a single product. Primer sequences were as follows:
Statistical methods. All real-time PCR fecal samples were run in triplicate technical replicates. The difference between the mean target gene copy numbers was analyzed by two-tailed unpaired t tests. The real-time PCR intestinal samples were run in triplicate from two biological replicates per group. The difference between the mean relative expression of each target gene was analyzed by two-tailed unpaired t tests.

T. gondii [4] = assay: Oocyst counts in mouse feces by microscopy; type: in vivo, Toxoplasma gondii; conditions: mice, inhibitor every 12 hours for the 7 days of infection
Method: as §1

[5] = test system: T. gondii ME49 bradyzoites; assay: Gametes and intracellular oocyst walls (AO2, 3G4, PCR) in infected cat intestinal monolayers; type: cell-based, Toxoplasma gondii; conditions: cultured cat cells, 200 μM fatty acid, 7 days of infection
Method: FIGS. 7A-H. Identification of gametes and intracellular oocysts in cat tissue culture. Cat intestinal organoids were disassociated by trypsin then grown as monolayers on glass slides. […] After 7 days, monolayers were incubated with mouse anti-AO2 (panels A-C) or mouse monoclonal IgM 3G4 (panels E-G), The amiloride-sensitive amine oxidase, copper-containing protein 2 (AO2) is an enzyme exclusively expressed in macrogametes and early oocysts and has a possible role in oocyst wall biogenesis. […] 3G4 is a mouse monoclonal antibody produced by immunizing mice with purified oocyst walls, thus it is a marker of oocyst wall biogenesis. Only monolayers supplemented with linoleic acid (G) had positive 3G4 vacuoles. All panels are 20 μm square with a 5 μm white size bar in the lower right corner. D) Markers for macrogamete and microgamete expression were also evaluated by PCR. Cat intestinal monolayers were grown in 24-well plates until confluency and then infected with T. gondii bradyzoites in duplicate using the same conditions as above. 7 days post-infection, RNA was extracted with TRIzol and cDNA was synthesized using an oligo (dT) primer to only amplify mRNA. AO2 was again used as a marker for macrogametes and the expected PCR product is 218 bp. To assess microgamete presence, we selected the gene TgME49_306338, which is overexpressed in the gametes stage, corresponded to day 7 post-infection in cats and has 44% identity to a protein expressed in the flagella of the motile green algae Chlamydomonas reinhardtii. The expected PCR product for TgME49_306338 is 160 bp. TUB1A was used as an input control and results in a 172 bp product. NO RT corresponds to a cDNA synthesis reaction without the addition of reverse transcriptase (RI) as a control for genomic DNA contamination. Equivalent amounts of cDNA per sample were used as a template for each PCR reaction, and the products were separated on an acrylamide gel. […] H) The number of positive oocyst walls stained with 3G4 were quantified. […] The number of positive oocyst walls were counted in each slide and divided by the area of slide in cm^2.
Immunofluorescence. Intestinal organoid monolayers or mouse fecal samples were fixed in 3.7% formaldehyde in PBS for 20 minutes, permeabilized with 0.2% triton X-100 (Sigma) in PBS at room temperature for one hour and then blocked with 3% BSA in PBS at room temperature for one hour. Primary antibody was incubated at 4° C. overnight in 0.2% v/v Triton x-100 and 3% BSA in PBS (1:100 mouse anti-GRA11B, 1:100 rabbit anti-BRP1, 1:100 mouse anti-AO2, 1:50 monoclonal mouse anti-ZO1 (Santa Cruz) or 1:25 mouse 288 IgM anti-oocyst wall 3G4. Sporulated oocysts from mouse feces were dried onto slides, fixed and permeabilized with ice cold acetone for 30 minutes and incubated with 1:20 mouse 4B6 to the visualize the sporocyst. Slides were incubated one hour with the specific secondary antibody (1:500 goat anti-rabbit Alexa Fluor 488 and 1:500 goat anti-mouse Alexa Fluor 594) at room temperature for one hour and then washed 3 times with PBS. Cells nuclei were stained with 10 μM DAPI (Sigma). Slides were mounted in Vectashield antifade mounting medium (VectorLabs). Samples were imaged on Zeiss Axioplan III equipped with a triple-pass (DAPI/fluorescein isothiocyanate [FITC]/Texas Red) emission cube, differential interference contrast optics, and a monochromatic Axiocam camera operated by Zen software (Zeiss) and processed using ImageJ (Fiji packet).
PCR of cat intestinal monolayers. […]

[6] = test system: T. gondii ME49 bradyzoites; assay: qPCR of SAG1, GRA11B, TUB1A on cDNA of infected cat intestinal monolayers; type: cell-based, Toxoplasma gondii; conditions: cat intestinal monolayers cDNA
Method: (§3) FIGS. 6A-B. Quantification of merozoites in cat tissue culture. A) Cat intestinal organoids were disassociated by trypsin then grown as monolayers on glass slides. Slides were divided into three different groups: not supplemented with fatty acid, supplemented with 200 μM oleic acid or supplemented 200 μM linoleic acid. Monolayers were infected with T. gondii MEM bradyzoites purified from brains of chronic infected mice at a 1:10 MOI. Five days after infection, staining for GRA11B and BRP1 along with DAPI, allowed the percentage of vacuoles positive for GRA11B and BRP1out of the total vacuoles was determined. Total number of parasitophorous vacuoles were counted by positive DAPI staining and confirmed by morphology with DIC. At least 50 parasitophorous vacuoles were counted per replicate. Three biological replicates were counted and on average 35% of the total vacuoles were positive far both GRA11B and BRP1 in the linoleic acid supplemented monolayers. *p-value=0.0126 with N=3 by two-tailed unpaired t test. Straining for both BRP1 and GRA11B was used to ensure that merozoite stages were counted. […] BRP1 is a rhoptry protein that was initially found in bradyzoites; however, it is also expressed in merozoite. B) Cat intestinal monolayers were grown as described in panel A, except monolayers were quenched by TRIzol 5 days post-infection, RNA was extracted, and cDNA was synthesized using an oligo (dT) primer to amplify mRNA, Expression of SAG1 and GRA11B were quantified by qPCR and the fold change calculated in comparison with uninfected cells. TUB1A was used to normalize gene expression across samples.
as §2, with “follows: […]” for “follows:”

[7] = test system: T. gondii ME49 bradyzoites; assay: Merozoite markers GRA11B/BRP1, immunofluorescence, infected cat intestinal monolayers; type: cell-based, Toxoplasma gondii; conditions: 200 μM fatty acid, 5 days of infection
Method: as §3, with “B) Cat intestinal monolayers were grown as described in panel A, except monolayers were quenched by TRIzol 5 days post-infection, RNA was extracted, and cDNA was synthesized using an oligo (dT) primer to amplify mRNA, Expression of SAG1 and GRA11B were quantified by qPCR and the fold change calculated in comparison with uninfected cells. TUB1A was used to normalize gene expression across samples.” left out

[8] = biological replicates 1 and 2, wells 1-3

| SMILES | monolayer formation (murine organoids) | anti-inflammatory effect [1] | T. gondii genomic DNA in mouse fecal samples (qPCR, SAG1 primers) (T. gondii [2]) | expression of merozoite marker GRA11B, qPCR of ileum cDNA [3] | oocysts produced (T. gondii [4]) | number of positive oocyst walls stained with 3G4 [5] | GRA11B Ct mean ([6]; biological replicates 1 and 2) | SAG1 Ct mean ([6]; biological replicates 1 and 2) | GRA11B raw Ct values [6, 8] | SAG1 raw Ct values [6, 8] | parasites undergoing sexual development / merozoite stage markers GRA11B and BRP1 (staining) [7] |
| --- | --- | --- | --- | --- | --- | --- | --- | --- | --- | --- | --- |
| N#CC(CCCN1CCN(/N=C/c2cccnc2)CC1)(c1ccccc1)c1ccccc1 [SC26196] | did not inhibit monolayer formation | effective as an anti-inflammatory agent | detectable only in mice treated with SC26196; also recorded: detected only in mice treated with SC26196 | significantly up regulated only in the presence of SC26196 | 1000-10,000 oocysts/gram dry feces | – | – | – | – | – | – |
| CCCCCCCC/C=C\CCCCCCCC(=O)O [oleic acid] | – | – | – | – | – | none | 32.53 and 31.82 | 20.83 and 19.56 | 32.44 and 31.77 (2×) and 32.73 and 31.91 and 32.43 | 20.87 and 19.66 and 20.88 and 19.54 and 20.75 and 19.46 | not |
